This note sets out measurements from patent US20020091124A1, “2-acyl indole derivatives and their use as antitumor agents” (priority 2000, published 2002).

Where two headings read alike, the source gives them in different places.

The test system of series [1] is 12 permanent human tumor cell lines. As to the kind of experiment: Propidium iodide-based cytotoxicity assay. The format is cell-based. The source says: (§1) . The cell lines included intestinal (2), stomach (1), lung (3), breast (2), melanoma (2), ovary (1), kidney (1) and uterus (1) tumor cell lines. […]. Emphasis is furthermore to be given to the oral bioavailability of the indole compounds according to the invention. […]

A further series concerns RKO p21 cells. As to the kind of experiment: RKOp21 model, XTT assay. The format is cell-based. As to conditions: Homo sapiens; Table 2; read-out: RKP p21 induced IC50. The text has this:
The model used for examining the cell cycle-specific action was the RKOp21 cell system (M. Schmidt et al. Oncogene19(20):2423-9, 2000). RKO is a human colon carcinoma line in which the cell cycle inhibitor p21^wafl is expressed induced by the ecdysone expression system and leads to an arrest of the cell cycle specifically in G1 and G2. Nonspecific substances inhibit proliferation independently of whether the RKO cell is arrested in G1 or G2 or not. In contrast, cell cycle-specific substances, such as, for example, tubulin inhibitors, are only cytotoxic if the cells are not arrested and the cell cycle is in progress. […] This underlines the arrest of the cell cycle in […] already found in the FACS analyses, and a cell cycle-specific action of the compounds tested.
The assay is carried out in 96-well plates. […] Comparison of the activity on induced and non-induced cells allows conclusions to be drawn about the mechanism of action (cell cycle specificity) of the therapeutics. Non-induced [sic] cells are sown at a cell count which is about four times higher than that of non-induced cells since, compared to non-induced cells, there is no further division during the assay (2×10^4 cells/well induced, about 0.6×10^4 cells/well not induced). The controls are untreated cells (+/− induction). Induction is carried out using 3 μM of muristerone A. On day 1, the cells are plated (+/− muristerone A) and incubated at 37° C. for 24 h. On day 2, the test substance is added (control DMSO) and incubation at 37° C. is continued for another 48 h, after which a standard XTT assay is carried out.

Series [2] has as its system human glioblastoma cell line U373. The series is described as follows: Cell cycle analysis by FACS. Conditions: U373, treated 24 h, FIG. 2.
The subject of a further series is human melanoma MEXF 989. The series is described as follows: Human tumor xenograft MEXF 989 in naked mice. The format is in vivo. Conditions: MEXF 989, oral, 2 weeks, 5 administrations per week. The source says:
(§2) For the in vivo experiments on naked mice, subcutaneously transplanted tumor fragments of the human melanoma MEXF 989 and/or the rhabdomyosarcoma SXF 463 were used. […]; Monday to Friday). […]. The cell lines included intestinal (2), stomach (1), lung (3), breast (2), melanoma (2), ovary (1), kidney (1) and uterus (1) tumor cell lines. […]. Emphasis is furthermore to be given to the oral bioavailability of the indole compounds according to the invention. […]

For series [3], the system named is human glioma cell line A-172. As to the kind of experiment: XTT cytotoxicity test, A-172. As to conditions: A 172, 45 h, read-out: IC50 A-172.
Another series has as its system rat glioma cell line C6. As to the kind of experiment: XTT cytotoxicity test, C6. As to conditions: 45 h, read-out: IC50 C6.
Series [4] is described as follows: Tolerability and oral administration in naked mice. The format is in vivo.
From the text: as §1

Series [5] has as its system human cervical carcinoma cell line KB/HeLa. As to the kind of experiment: XTT cytotoxicity test, KB/HeLa. The format is cell-based.
The subject of series [6] is human glioma cell line U373. The series is described as follows: XTT cytotoxicity test, U373. As to conditions: U373 MG, 45 h, read-out: IC50 U373.
The subject of series [7] is human glioma cell line U118. The series is described as follows: XTT cytotoxicity test, U118. As to conditions: 45 h, read-out: IC50 U118.
For a further series, the system named is rhabdomyosarcoma SXF 463. As to the kind of experiment: Human tumor xenograft SXF 463 in naked mice. The series is classed as in vivo. Conditions: SXF 463, oral, 200 mg/kg, 2 weeks.
From the text: as §2

As for `COc1ccc2[nH]c(C(=O)c3ccccc3)cc2c1` [Example D-64131, 5-methoxy-1H-2-indolylphenyl-1-methanone], the IC50 in series [1] (12 human tumor cell lines, read-out: average IC50 for all cell lines examined) was 340 nM; in series [1] (lung and stomach tumor cell lines, read-out: IC50), roughly 4000 nM; in series [1] (melanoma, intestinal and kidney tumor cells, read-out: IC50), 4 nM; in the series with RKO p21 cells, 15 nM; in [3] it was 51 nM; in the series with rat glioma cell line C6 it was 96.5 nM. The IC50 in series [5] (45 h, read-out: IC50 KB/HeLa) was 24 nM; in series [5] (read-out: Zytotoxizität KB/HeLa IC50) it was 24 nM; in [6] it was 22 nM; in [7] it was 24 nM. The “cells in the metaphase of mitotic division (M-phase)” value in series [2] is “concentration-dependent arrest of the cells in mitosis”. Moreover, the growth inhibition with human melanoma MEXF 989 (100 mg/kg/day) is on record as 66%; with human melanoma MEXF 989 (200 mg/kg/day), 81%. In addition, in series [4] (concluded from oral activity), the oral bioavailability result is on record as “orally bioavailable”. Further, the tolerated maximum dose in [4] (intraperitoneal injection, administered weekly) came out at 400 mg/kg. Also, the tolerability entry in series [4] (p.o. 100 and 200 mg/kg, Qdx5 for 2 weeks) is recorded as “tolerated very well”. Further, the “growth inhibition relative to the control” value in the series with rhabdomyosarcoma SXF 463 came out at 83%.
